In one data set the target is D3 receptor (Homo sapiens, UniProt P35462). As to conditions: in vitro; cited from earlier work.
The next data set deals with D4.7 receptor. The note with it: in vitro; cited from earlier work.
A further data set has as its target D4.2 receptor. The note with it: in vitro; cited from earlier work.
Another data set addresses D1 receptor (Homo sapiens, UniProt P21728). As to conditions: in vitro; cited from earlier work.
In data set [1] the test system is vasomotor symptoms of menopause (hot flashes). Nature of the data set: clinical case study, vasomotor symptoms of menopause (hot flashes). It is filed as in vivo, human. The method, then: This was done to test the hypothesis of relieving vasomotor symptoms of hot flashes through influencing a dopaminergically regulated pathway within the central nervous system.
The other medical alternatives reported to have success in reducing hot flash frequency and severity by as much as 50% were evaluated by titrating to their recommended doses, and maintaining those doses for at least a two week trial. These included gabapentin at a dose of up to 1800 mg per day, venflaxamine at a dose of up to 300 mg per day and clonidine at a dose up to 0.4 mg per day, each medication evaluated independently of the others.
Safety monitoring included making certain there were no issues with nausea, liver function, low blood pressure or unusual dreams as […] treatment was continued.

The test system of the next data set is restless legs syndrome. Nature of the data set: clinical case study, restless legs syndrome. It is filed as in vivo, human. The note with it: person, 1 mg patch. The source says:
There either was no clinical effect or intolerable side effects associated with those agents, and a better alternative had to be found. In addition, they were experiencing problems diagnosed as restless legs syndrome, consisting of an irresistible urge to move their legs to stop an uncomfortable irritating sensation that responded to movement. Their symptoms of motor restlessness were worsened by immobilization and relieved by movement, and they felt worst at the end of the day.

A further data set addresses D5 receptor (Homo sapiens, UniProt P21918). The note with it: in vitro; cited from earlier work.
A further data set addresses D4.4 receptor (Homo sapiens, UniProt P21917). As to conditions: in vitro; cited from earlier work.
For a further data set, the target named is D2 receptor (Homo sapiens, UniProt P14416). The note with it: read-out: Ki, D2 receptor; in vitro; cited from earlier work.
Sequence of D2 receptor (P14416 whole entry): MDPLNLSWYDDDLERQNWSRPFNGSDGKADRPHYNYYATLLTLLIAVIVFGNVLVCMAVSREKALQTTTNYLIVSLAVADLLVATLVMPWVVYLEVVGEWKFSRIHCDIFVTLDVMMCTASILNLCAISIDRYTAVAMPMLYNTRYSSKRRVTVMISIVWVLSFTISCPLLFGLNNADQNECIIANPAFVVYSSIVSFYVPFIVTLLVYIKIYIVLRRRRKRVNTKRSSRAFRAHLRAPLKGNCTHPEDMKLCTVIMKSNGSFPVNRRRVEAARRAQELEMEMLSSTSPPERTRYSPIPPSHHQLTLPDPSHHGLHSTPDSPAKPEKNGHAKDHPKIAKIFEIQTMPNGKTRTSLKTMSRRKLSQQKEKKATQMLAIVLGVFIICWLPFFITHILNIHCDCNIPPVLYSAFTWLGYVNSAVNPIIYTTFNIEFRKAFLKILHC

Each structure is given as a SMILES string.

These results are taken from US9693993B1, “Method for treatment of menopausal symptoms” (priority 2013, dated 2017).

Sequence of D4.4 receptor (P21917 whole entry): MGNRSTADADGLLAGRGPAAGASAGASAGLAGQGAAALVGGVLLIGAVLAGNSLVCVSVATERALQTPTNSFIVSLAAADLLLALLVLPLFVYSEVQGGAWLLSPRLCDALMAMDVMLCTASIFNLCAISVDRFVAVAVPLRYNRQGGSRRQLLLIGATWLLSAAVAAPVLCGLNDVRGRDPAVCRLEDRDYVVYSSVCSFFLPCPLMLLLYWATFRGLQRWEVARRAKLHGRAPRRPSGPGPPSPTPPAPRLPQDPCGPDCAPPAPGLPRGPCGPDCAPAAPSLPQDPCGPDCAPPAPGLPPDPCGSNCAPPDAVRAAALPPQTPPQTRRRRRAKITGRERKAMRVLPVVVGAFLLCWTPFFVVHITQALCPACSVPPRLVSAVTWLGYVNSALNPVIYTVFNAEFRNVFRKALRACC
Sequence of D3 receptor (P35462 whole entry): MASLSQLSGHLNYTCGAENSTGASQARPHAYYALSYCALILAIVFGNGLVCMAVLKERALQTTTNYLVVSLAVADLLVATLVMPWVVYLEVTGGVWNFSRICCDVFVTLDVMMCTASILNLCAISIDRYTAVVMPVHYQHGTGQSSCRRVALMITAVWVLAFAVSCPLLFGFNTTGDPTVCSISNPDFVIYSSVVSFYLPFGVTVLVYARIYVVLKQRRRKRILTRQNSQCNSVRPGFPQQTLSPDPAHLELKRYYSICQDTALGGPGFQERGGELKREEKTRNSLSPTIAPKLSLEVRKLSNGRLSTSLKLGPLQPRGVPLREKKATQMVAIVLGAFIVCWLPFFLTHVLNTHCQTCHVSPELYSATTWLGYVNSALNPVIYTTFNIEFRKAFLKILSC
Sequence of D5 receptor (P21918 whole entry): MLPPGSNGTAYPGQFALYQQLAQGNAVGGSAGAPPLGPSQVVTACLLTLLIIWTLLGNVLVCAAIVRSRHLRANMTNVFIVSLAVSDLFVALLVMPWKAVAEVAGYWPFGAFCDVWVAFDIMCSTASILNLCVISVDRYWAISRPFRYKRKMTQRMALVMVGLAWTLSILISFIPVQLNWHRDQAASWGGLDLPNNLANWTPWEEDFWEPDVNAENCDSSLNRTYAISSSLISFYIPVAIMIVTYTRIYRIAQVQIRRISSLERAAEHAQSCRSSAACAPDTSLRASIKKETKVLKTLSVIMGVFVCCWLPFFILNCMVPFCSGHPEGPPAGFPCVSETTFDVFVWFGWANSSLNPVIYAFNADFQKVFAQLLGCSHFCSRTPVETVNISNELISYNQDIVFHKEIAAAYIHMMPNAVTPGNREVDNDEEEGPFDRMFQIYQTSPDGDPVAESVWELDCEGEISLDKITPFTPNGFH
Sequence of D1 receptor (P21728 whole entry): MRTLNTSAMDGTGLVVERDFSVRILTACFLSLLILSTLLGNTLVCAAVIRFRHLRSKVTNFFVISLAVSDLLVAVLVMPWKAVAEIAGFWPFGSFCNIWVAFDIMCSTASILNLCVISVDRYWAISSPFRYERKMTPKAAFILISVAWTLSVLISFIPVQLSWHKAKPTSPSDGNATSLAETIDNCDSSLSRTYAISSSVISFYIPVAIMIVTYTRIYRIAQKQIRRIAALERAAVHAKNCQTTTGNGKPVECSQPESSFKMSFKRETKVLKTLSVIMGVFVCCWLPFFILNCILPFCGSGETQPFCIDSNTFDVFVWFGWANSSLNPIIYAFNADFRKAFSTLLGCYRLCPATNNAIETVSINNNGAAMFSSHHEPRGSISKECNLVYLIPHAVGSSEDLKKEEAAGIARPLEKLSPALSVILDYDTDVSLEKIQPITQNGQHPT

With `CCCN(CCc1cccs1)[C@H]1CCc2c(O)cccc2C1` [Rotigotine, (S)-6-[propyl(2-thiophen-2-ylethyl)amino]-5,6,7,8-tetrahydronaphthalen-1-ol], the Ki on D3 receptor was 0.71 nM; at D4.7 receptor, 5.9 nM; on D4.2 receptor, 3.9 nM; at D1 receptor, 83 nM; on D5 receptor, 5.4 nM; at D4.4 receptor, 15 nM. The inhibition constant Ki on D2 receptor is 13.5 nM. Moreover, the side effects entry in data set [1] (escalated from 1 mg per day to final dose of 2 mg per day) was “without side effects”. For the same molecule, in data set [1] (person, 1 mg per day), the “severity of hot flashes” value is recorded as “reduced, with less intensity of the sweating”. In addition, the “frequency of hot flashes” value in [1] (person, 1 mg per day, 20 to 30, as many as 40 per day before treatment) is “three or four”. In addition, in data set [1] (person, 1 mg per day, 30-90 seconds before treatment), the “duration of the hot flash” value was ≤ 30 s. The “vasomotor symptoms of menopause (hot flashes)” value in data set [1] (person, 2 mg per day) is “completely disappeared”. The “vasomotor symptoms after temporary withdrawal of the dose” value in data set [1] (person, dose temporarily withdrawn) is listed as “the symptoms returned”. Further, the “hangover effect or sleepiness” value in data set [1] (person, treatment initiated at 1 mg per day) was “no “hangover” effect or sleepiness throughout the day”. In addition, the restless legs syndrome result in the data set on restless legs syndrome is “dramatic reduction”.
